Measurements published in PubChem BioAssay (NCI).
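These data come from cells grown in 96-well plates and exposed to compound for 48 hours at five concentrations. Abbreviation: GI50, concentration required for 50% inhibition of growth. At the TGI there is no net growth.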

Tests used:
Assay in all cases: growth of human tumour cells (NCI), 48 h
CAKI-1 renal = tested on: CAKI-1 renal
NCI-H23 lung = tested on: NCI-H23 lung
SK-OV-3 ovarian = tested on: SK-OV-3 ovarian
NCI-H226 lung = tested on: NCI-H226 lung
ACHN renal = tested on: ACHN renal
OVCAR-4 ovarian = tested on: OVCAR-4 ovarian
MDA-MB-435 = tested on: MDA-MB-435
786-0 renal = tested on: 786-0 renal
HCT-15 colon = tested on: HCT-15 colon
K-562 leukemia = tested on: K-562 leukemia
SF-268 CNS = tested on: SF-268 CNS
SW-620 colon = tested on: SW-620 colon
NCI-H522 lung = tested on: NCI-H522 lung
U251 CNS = tested on: U251 CNS
HCC-2998 colon = tested on: HCC-2998 colon
OVCAR-3 ovarian = tested on: OVCAR-3 ovarian
A549 NSCLC = tested on: A549 NSCLC
RXF 393 renal = tested on: RXF 393 renal
MDA-MB-231 breast = tested on: MDA-MB-231 breast
UACC-257 melanoma = tested on: UACC-257 melanoma
HOP-62 NSCLC = tested on: HOP-62 NSCLC
MALME-3M melanoma = tested on: MALME-3M melanoma
HT29 colon = tested on: HT29 colon
BT-549 breast = tested on: BT-549 breast
LOX IMVI melanoma = tested on: LOX IMVI melanoma
CCRF-CEM leukemia = tested on: CCRF-CEM leukemia
SN12C renal = tested on: SN12C renal
DU-145 prostate = tested on: DU-145 prostate
SK-MEL-2 melanoma = tested on: SK-MEL-2 melanoma
COLO 205 colon = tested on: COLO 205 colon
IGROV1 ovarian = tested on: IGROV1 ovarian
HOP-92 NSCLC = tested on: HOP-92 NSCLC
NCI/ADR-RES ovarian = tested on: NCI/ADR-RES ovarian
T-47D breast = tested on: T-47D breast
A498 renal = tested on: A498 renal
MCF7 breast = tested on: MCF7 breast
OVCAR-5 ovarian = tested on: OVCAR-5 ovarian
KM12 colon = tested on: KM12 colon
M14 melanoma = tested on: M14 melanoma
UO-31 renal = tested on: UO-31 renal
RPMI-8226 leukemia = tested on: RPMI-8226 leukemia
HL-60(TB) leukemia = tested on: HL-60(TB) leukemia
UACC-62 melanoma = tested on: UACC-62 melanoma
HCT-116 colon = tested on: HCT-116 colon
MOLT-4 leukemia = tested on: MOLT-4 leukemia
SK-MEL-5 melanoma = tested on: SK-MEL-5 melanoma
OVCAR-8 ovarian = tested on: OVCAR-8 ovarian
SNB-75 CNS = tested on: SNB-75 CNS
HS 578T breast = tested on: HS 578T breast
EKVX NSCLC = tested on: EKVX NSCLC
SF-295 CNS = tested on: SF-295 CNS
SK-MEL-28 melanoma = tested on: SK-MEL-28 melanoma
SR leukemia = tested on: SR leukemia
TK-10 renal = tested on: TK-10 renal
SF-539 CNS = tested on: SF-539 CNS
PC-3 prostate = tested on: PC-3 prostate
NCI-H460 lung = tested on: NCI-H460 lung
SNB-19 CNS = tested on: SNB-19 CNS

Structure (SMILES): O=C(Nc1cccc(-n2ccc3c(NC(=O)c4ccccc4)nccc32)c1)Nc1ccc(Cl)c(C(F)(F)F)c1
- GI50 (CAKI-1 renal): 718 nM
- TGI (CAKI-1 renal): 9380 nM
- GI50 (NCI-H23 lung): 593 nM
- TGI (NCI-H23 lung): 5210 nM
- GI50 (SK-OV-3 ovarian): 346 nM
- TGI (SK-OV-3 ovarian): 20600 nM
- GI50 (NCI-H226 lung): 865 nM
- TGI (NCI-H226 lung): > 28500 nM
- GI50 (ACHN renal): 670 nM
- TGI (ACHN renal): 8480 nM
- GI50 (OVCAR-4 ovarian): 971 nM
- TGI (OVCAR-4 ovarian): > 100000 nM
- GI50 (MDA-MB-435): 227 nM
- TGI (MDA-MB-435): 605 nM
- GI50 (786-0 renal): 589 nM
- TGI (786-0 renal): > 100000 nM
- GI50 (HCT-15 colon): 339 nM
- TGI (HCT-15 colon): 14500 nM
- GI50 (K-562 leukemia): 386 nM
- TGI (K-562 leukemia): > 100000 nM
- GI50 (SF-268 CNS): 696 nM
- TGI (SF-268 CNS): > 40000 nM
- GI50 (SW-620 colon): 395 nM
- TGI (SW-620 colon): > 100000 nM
- GI50 (NCI-H522 lung): 211 nM
- TGI (NCI-H522 lung): 642 nM
- GI50 (U251 CNS): 495 nM
- TGI (U251 CNS): 17700 nM
- GI50 (HCC-2998 colon): 413 nM
- TGI (HCC-2998 colon): 15200 nM
- GI50 (OVCAR-3 ovarian): 240 nM
- TGI (OVCAR-3 ovarian): 554 nM
- GI50 (A549 NSCLC): 485 nM
- TGI (A549 NSCLC): > 100000 nM
- GI50 (RXF 393 renal): 224 nM
- TGI (RXF 393 renal): 693 nM
- GI50 (MDA-MB-231 breast): 420 nM
- TGI (MDA-MB-231 breast): 14200 nM
- GI50 (UACC-257 melanoma): 1870 nM
- TGI (UACC-257 melanoma): 20900 nM
- GI50 (HOP-62 NSCLC): 736 nM
- TGI (HOP-62 NSCLC): > 44600 nM
- GI50 (MALME-3M melanoma): 1070 nM
- TGI (MALME-3M melanoma): 47500 nM
- GI50 (HT29 colon): 327 nM
- TGI (HT29 colon): 1400 nM
- GI50 (BT-549 breast): 697 nM
- TGI (BT-549 breast): 10400 nM
- GI50 (LOX IMVI melanoma): 649 nM
- TGI (LOX IMVI melanoma): 31600 nM
- GI50 (CCRF-CEM leukemia): 332 nM
- TGI (CCRF-CEM leukemia): > 100000 nM
- GI50 (SN12C renal): 820 nM
- TGI (SN12C renal): > 100000 nM
- GI50 (DU-145 prostate): 338 nM
- TGI (DU-145 prostate): 2280 nM
- GI50 (SK-MEL-2 melanoma): 358 nM
- TGI (SK-MEL-2 melanoma): 2620 nM
- GI50 (COLO 205 colon): 273 nM
- TGI (COLO 205 colon): 737 nM
- GI50 (IGROV1 ovarian): 662 nM
- TGI (IGROV1 ovarian): > 100000 nM
- GI50 (HOP-92 NSCLC): 860 nM
- TGI (HOP-92 NSCLC): 5740 nM
- GI50 (NCI/ADR-RES ovarian): 252 nM
- TGI (NCI/ADR-RES ovarian): 667 nM
- GI50 (T-47D breast): 2880 nM
- TGI (T-47D breast): > 100000 nM
- GI50 (A498 renal): 210 nM
- TGI (A498 renal): 1350 nM
- GI50 (MCF7 breast): 373 nM
- TGI (MCF7 breast): > 30700 nM
- GI50 (OVCAR-5 ovarian): 482 nM
- TGI (OVCAR-5 ovarian): > 100000 nM
- GI50 (KM12 colon): 343 nM
- TGI (KM12 colon): 2680 nM
- GI50 (M14 melanoma): 315 nM
- TGI (M14 melanoma): 1260 nM
- GI50 (UO-31 renal): 1350 nM
- TGI (UO-31 renal): > 100000 nM
- GI50 (RPMI-8226 leukemia): 424 nM
- TGI (RPMI-8226 leukemia): 7020 nM
- GI50 (HL-60(TB) leukemia): 332 nM
- GI50 (UACC-62 melanoma): 490 nM
- TGI (UACC-62 melanoma): 20000 nM
- GI50 (HCT-116 colon): 372 nM
- TGI (HCT-116 colon): 13700 nM
- GI50 (MOLT-4 leukemia): 885 nM
- TGI (MOLT-4 leukemia): > 100000 nM
- GI50 (SK-MEL-5 melanoma): 317 nM
- TGI (SK-MEL-5 melanoma): 1480 nM
- GI50 (OVCAR-8 ovarian): 431 nM
- TGI (OVCAR-8 ovarian): > 39600 nM
- GI50 (SNB-75 CNS): 240 nM
- TGI (SNB-75 CNS): 769 nM
- GI50 (HS 578T breast): 283 nM
- TGI (HS 578T breast): 3250 nM
- GI50 (EKVX NSCLC): 633 nM
- TGI (EKVX NSCLC): > 100000 nM
- GI50 (SF-295 CNS): 294 nM
- TGI (SF-295 CNS): 1340 nM
- GI50 (SK-MEL-28 melanoma): 651 nM
- TGI (SK-MEL-28 melanoma): > 92000 nM
- GI50 (SR leukemia): 367 nM
- TGI (SR leukemia): > 23300 nM
- GI50 (TK-10 renal): 1190 nM
- TGI (TK-10 renal): 14600 nM
- GI50 (SF-539 CNS): 308 nM
- TGI (SF-539 CNS): 3980 nM
- GI50 (PC-3 prostate): 432 nM
- TGI (PC-3 prostate): > 36100 nM
- GI50 (NCI-H460 lung): 337 nM
- TGI (NCI-H460 lung): 18300 nM
- GI50 (SNB-19 CNS): 494 nM
- TGI (SNB-19 CNS): > 100000 nM
